Experimental data: PMC3079579, “Solution Structure of a Repeated Unit of the ABA-1 Nematode Polyprotein Allergen of Ascaris Reveals a Novel Fold and Two Discrete Lipid-Binding Sites” (PLoS Neglected Tropical Diseases, 2011)

Tests used:
[1] = target: T1, ABA-1A (rABA-1A, RP-ABA-1A; As-NPA-1A) (Ascaris suum, UniProt Q06811); test: fluorescence blue-shift of probe; format: binding; settings: PBS pH 7.3, 25 °C, data not shown
[2] = target: T1, ABA-1A (rABA-1A, RP-ABA-1A; As-NPA-1A); test: fluorescence titration (probe enhancement, […] nm); format: binding

T1 sequence (Q06811 534-662): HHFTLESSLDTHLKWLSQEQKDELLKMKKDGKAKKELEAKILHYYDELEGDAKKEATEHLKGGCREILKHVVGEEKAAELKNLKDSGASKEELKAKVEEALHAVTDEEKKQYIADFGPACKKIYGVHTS

Compound | fluorescence blue-shift of probe [1] | Kd [2] [nM]
CCCCCCC(NS(=O)(=O)c1cccc2c(N(C)C)cccc12)C(=O)O (racemic) [DACA, dansyl-α-aminooctanoic acid] | A similar blue-shift (data not shown) was observed using dansyl-DL-α-caprylic acid (DACA) | –
CN(C)c1cccc2c(S(=O)(=O)NCCCCCCCCCCC(=O)O)cccc12 [DAUDA, 11-(((5-(dimethylamino)-1-napthalenyl)sulfonyl)amino)undecanoic acid] | – | 110
